According to patent US12343332B2, “Treatment of a bacterial vaginal infection” (Adamed Pharma S.A., priority 2017, dated 2025):
≈ marks a conversion by molar mass, not a printed value. Entries after “also recorded” stand apart in the source; their conditions may differ. Like-named read-outs stand apart in the source and are kept apart here.

Key:
Assay type in all cases: cell-based
[1] = system: Atopobium vaginae ATCC BAA 55; test: MIC, macro dilution method for bacteria in a solid medium; settings: for MIC: Fannyhessea vaginae, BAA55, 168 h, read-out: MIC value; for antibacterial activity (in words): against Atopobium vaginae
Method: (§1) Strains used in the study were Gardnerella vaginalis ATCC 14018, Atopobium vaginae ATCC BAA 55, Candida albicans ATCC 90028, and Candida [NT] 2001. […] To perform the assay, a pure, 48-hour strain reference culture was used, from which a bacterial suspension with a density of 1.0 McFarland in sterile saline was prepared. The suspension was plated onto Schaedler agar medium supplemented with 5% sheep blood (Becton Dickinson) and a test compound at the appropriate concentration. After incubation, the value MIC was read. Colony growth on the plate indicated no activity of the test compound at tested concentration. As the MIC value, the last lowest concentration as taken, at which there was no microbial growth. [table]

[2] = system: Gardnerella vaginalis ATCC 14018; test: as above; settings: for MIC: Gardnerella vaginalis, ATCC14018, 72 h, read-out: MIC value; for antibacterial activity (in words): against Gardnerella vaginalis
Method: as §1

[3] = system: Candida albicans ATCC 90028; test: MIC, macro dilution method for yeast-like fungi in a liquid medium; settings: for MIC: read-out: MIC value
Method: (§2) Strains used in the study were Gardnerella vaginalis ATCC 14018, Atopobium vaginae ATCC BAA 55, Candida albicans ATCC 90028, and Candida [NT] 2001. […] Liquid medium RPMI 1640 (Sigma-Aldrich) was used for fungi of the species Candida albicans ATCC 90028, and Candida [NT] 2001, in which 15 serial dilution were prepared in a range 500 μg/mL-0.03 μg/mL. From a pure 24-hour culture on Sabouraud solid medium, a fungal suspension having density of 0.5 McFarland in sterile saline. Next, the suspension was diluted, and was introduced into the RPMI 1640 medium yielding final concentrations of fungi 10^5 CFU/mL. Incubation was carried out for 24 hours in aerobic conditions in 37° C. Colony growth on the plate indicated no activity of the test compound at tested concentration. As the MIC value, the last lowest concentration as taken, at which there was no microbial growth

[4] = system: Candida glabrata ATCC 2001; test: as above; settings: for MIC: Nakaseomyces glabratus, read-out: MIC value
Method: as §2

[5] = system: Atopobium vaginae ATCC BAA 55; test: Synergistic action at 2-fold lower concentrations than MIC, solid medium; settings: for Synergy with Metronidazole / Synergy with Nystatin: Atopobium vaginae ATCC BAA 55, Furazidin 0.03 mg/L, Nitrofurantoin 0.98 mg/L, Nifuratel 1.95 mg/L; for Synergy with Metronidazole: Metronidazole 0.5 mg/L; for Synergy with Nystatin: Nystatin 250 mg/L; for synergistic effects with metronidazole (in words): against Atopobium vaginae
Method: (§3) To perform the assay, a pure, 48-hour strain reference culture was used, from which a bacterial suspension with a density of 1.0 McFarland in sterile saline was prepared. The suspension was plated onto Schaedler agar medium supplemented with 5% sheep blood (Becton Dickinson) and a test compound at the appropriate concentration. After incubation, the value MIC was read. Colony growth on the plate indicated no activity of the test compound at tested concentration. As the MIC value, the last lowest concentration as taken, at which there was no microbial growth. […] Lack of bacterial growth on the plate was interpreted as a synergic action. [table]

[6] = system: Gardnerella vaginalis ATCC 14018; test: as above; settings: for Synergy with Metronidazole / Synergy with Nystatin: Gardnerella vaginalis ATCC 14018, Furazidin 0.25 mg/L, Nitrofurantoin 0.5 mg/L, Nifuratel 0.98 mg/L; for Synergy with Metronidazole: Metronidazole 125 mg/L; for Synergy with Nystatin: Nystatin 250 mg/L; for synergistic effects with metronidazole (in words): against Gardnerella vaginalis
Method: as §3

[7] = system: Candida albicans ATCC 90028; test: Synergistic action at 2-fold lower concentrations than MIC, liquid medium; settings: for Synergy with Metronidazole / Synergy with Nystatin: Candida albicans ATCC 90028, each nitrofuran 250 mg/L; for Synergy with Metronidazole: Metronidazole 250 mg/L; for Synergy with Nystatin: Nystatin 0.98 mg/L
Method: (§4) Liquid medium RPMI 1640 (Sigma-Aldrich) was used for fungi of the species Candida albicans ATCC 90028, and Candida [NT] 2001, in which 15 serial dilution were prepared in a range 500 μg/mL-0.03 μg/mL. From a pure 24-hour culture on Sabouraud solid medium, a fungal suspension having density of 0.5 McFarland in sterile saline. Next, the suspension was diluted, and was introduced into the RPMI 1640 medium yielding final concentrations of fungi 10^5 CFU/mL. Incubation was carried out for 24 hours in aerobic conditions in 37° C. Colony growth on the plate indicated no activity of the test compound at tested concentration. As the MIC value, the last lowest concentration as taken, at which there was no microbial growth […] Lack of fungal growth on the plate was interpreted as a synergic action.

[8] = system: Candida glabrata ATCC 2001; test: as above; settings: for Synergy with Metronidazole / Synergy with Nystatin: Candida glabrata ATCC 2001, each nitrofuran 250 mg/L; for Synergy with Metronidazole: Metronidazole 125 mg/L; for Synergy with Nystatin: Nystatin 0.98 mg/L
Method: as §4

[9] = Atopobium vaginae ATCC BAA 55, Schaedler agar, anaerobic, 37° C., 7 days
[10] = Gardnerella vaginalis ATCC 14018, Schaedler agar, microaerophilic, 37° C., 72 hours
[11] = ATCC90028, Candida albicans ATCC 90028, RPMI 1640, 24 hours, aerobic, 37° C.
[12] = ATCC2001, Candida glabrata ATCC 2001, RPMI 1640, 24 hours, aerobic, 37° C.
[13] = Candida albicans ATCC 90028, RPMI 1640, 24 hours, aerobic, 37° C.
[14] = Candida glabrata ATCC 2001, RPMI 1640, 24 hours, aerobic, 37° C.

CCC[C@@H]1C[C@@H](C(=O)N[C@@H]([C@H]2O[C@H](SC)[C@H](O)[C@@H](O)[C@H]2O)[C@H](C)Cl)N(C)C1 [Clindamycin]
MIC value [1, 9]: <0.03 µg/mL
MIC [1, 9]: < 0.03 µg/mL
MIC value [2, 10]: 1.95 µg/mL (≈ 4.59 µM)
MIC [2, 10]: < 1.95 µg/mL

O=C1CN(/N=C/C=C/c2ccc([N+](=O)[O-])o2)C(=O)N1 [Furazidin]
MIC value [1, 9]: <0.03 µg/mL
MIC [1, 9]: < 0.03 µg/mL
antibacterial activity (in words) [1]: highest antibacterial activity in the group of nitrofuran derivatives
MIC value [2, 10]: 0.49 µg/mL (≈ 1.85 µM)
MIC [2, 10]: < 0.49 µg/mL
antibacterial activity (in words) [2]: highest antibacterial activity in the group of nitrofuran derivatives
MIC [3, 11]: 500 µg/mL (≈ 1890 µM)
MIC [4, 12]: 500 µg/mL (≈ 1890 µM)
Synergy with Metronidazole [5]: +
Synergy with Nystatin [5]: +
synergistic effects with metronidazole (in words) [5]: synergy; also recorded: synergistic effects
synergistic effects with nystatin (in words) ([5]; on Atopobium vaginae): synergistic effect
Synergy with Metronidazole [6]: +
Synergy with Nystatin [6]: +
synergistic effects with metronidazole (in words) [6]: synergy; also recorded: synergistic effects
synergistic effects with nystatin (in words) ([6]; on Gardnerella vaginalis): synergistic effect
Synergy with Metronidazole [7]: +
Synergy with Nystatin [7]: −
synergistic effects with metronidazole (in words) ([7]; against Candida albicans): synergy
Synergy with Metronidazole [8]: +
Synergy with Nystatin [8]: +
synergistic effects with metronidazole (in words) ([8]; against Candida glabrata): synergy
synergistic effects with nystatin (in words) ([8]; against Candida glabrata): synergistic effects

Cc1ncc([N+](=O)[O-])n1CCO [Metronidazol, Metronidazole]
MIC [1, 9]: 0.98 µg/mL (≈ 5.73 µM)
antibacterial activity (in words) [1]: antibacterial activity
MIC [2, 10]: 250 µg/mL (≈ 1460 µM)
antibacterial activity (in words) [2]: antibacterial activity
MIC [3, 11]: 500 µg/mL (≈ 2920 µM)
MIC [4, 12]: 250 µg/mL (≈ 1460 µM)

CSCC1CN(/N=C/c2ccc([N+](=O)[O-])o2)C(=O)O1 (stereo not shown) [Nifuratel]
MIC [1]: 3.9 µg/mL (≈ 13.7 µM)
antibacterial activity (in words) [1]: antibacterial activity
MIC [2]: 1.95 µg/mL (≈ 6.84 µM)
antibacterial activity (in words) [2]: antibacterial activity
MIC ([3]; Candida albicans, ATCC90028, 24 h): > 500 µg/mL
MIC ([4]; ATCC2001, 24 h): 500 µg/mL (≈ 1750 µM)
Synergy with Metronidazole [5]: −
Synergy with Nystatin [5]: +
Synergy with Metronidazole [6]: −
Synergy with Nystatin [6]: +
Synergy with Metronidazole [7]: +
Synergy with Nystatin [7]: −
Synergy with Metronidazole [8]: +
Synergy with Nystatin [8]: −

O=C1CN(/N=C/c2ccc([N+](=O)[O-])o2)C(=O)N1 [Nitrofurantion, Nitrofurantoin]
MIC value [1, 9]: 1.95 µg/mL (≈ 8.19 µM)
antibacterial activity (in words) [1]: antibacterial activity
MIC value [2, 10]: 0.98 µg/mL (≈ 4.11 µM)
antibacterial activity (in words) [2]: antibacterial activity
MIC value [3, 13]: 500 µg/mL (≈ 2100 µM)
MIC value [4, 14]: 500 µg/mL (≈ 2100 µM)
Synergy with Metronidazole [5]: +
Synergy with Nystatin [5]: +
synergistic effects with metronidazole (in words) [5]: synergistic effects
Synergy with Metronidazole [6]: +
Synergy with Nystatin [6]: +
synergistic effects with metronidazole (in words) [6]: synergistic effects
Synergy with Metronidazole [7]: +
Synergy with Nystatin [7]: −
Synergy with Metronidazole [8]: +
Synergy with Nystatin [8]: −

C[C@@H]1[C@H](O)[C@@H](C)/C=C/C=C/CC/C=C/C=C/C=C/C=C/C(O[C@H]2O[C@H](C)[C@@H](O)[C@H](N)[C@@H]2O)CC2O[C@](O)(CC(O)C(O)CCC(O)CC(O)CC(O)CC(=O)O[C@H]1C)CC(O)C2C(=O)O (stereo partly shown) [Nystatin]
MIC value [1, 9]: 500 µg/mL (≈ 540 µM)
MIC value [2, 10]: 500 µg/mL (≈ 540 µM)
MIC value [3, 13]: 1.98 µg/mL (≈ 2.14 µM)
MIC value [4, 14]: 1.98 µg/mL (≈ 2.14 µM)
